{
  "source": "patent US20090306392A1",
  "about": "“GSM INTERMEDIATES” (priority 2007, published 2009)",
  "system": "γ-secretase",
  "assay": "Screening for γ-secretase-modulating activity in SKNBE2 cells carrying APP 695-wild type",
  "format": "cell-based",
  "conditions": "SKNBE2 cells carrying the APP 695-wild type; for EC50: read-out: EC 50 WTAPP",
  "data": [
    {"molecule": "CC(C)CC(C(=O)O)c1cc(-c2ccc(C(F)(F)F)cc2)cc(N(C)c2ccc(C(F)(F)F)cc2)c1", "note": "(stereo not shown) [Example 13, 4-Methyl-2-{5-[methyl-(4-trifluoromethyl-phenyl)-amino]-4′-trifluoromethyl-biphenyl-3-yl}-pentanoic Acid]", "values": [
      {"measurement": "% @ 0.3 uM (WTAPP)", "value": 21, "unit": "% @ 0.3 uM"}
    ]},
    {"molecule": "CC(C)CCN(c1ccc(C(F)(F)F)cc1)c1cc(-c2ccc(C(F)(F)F)cc2)cc(C(CC(C)C)C(=O)O)c1", "note": "(stereo not shown) [Example 14, 4-Methyl-2-{5-[(3-methyl-butyl)-(4-trifluoromethyl-phenyl)-amino]-4′-trifluoromethyl-biphenyl-3-yl}-pentanoic Acid]", "values": [
      {"measurement": "EC50", "value": 170, "unit": "nM"}
    ]},
    {"molecule": "CC(C)CCN(c1ccc(Cl)cc1)c1cc(-c2ccc(C(F)(F)F)cc2)cc(C(CC(C)C)C(=O)O)c1", "note": "(stereo not shown) [Example 15, 2-{5-[(4-Chloro-phenyl)-(3-methyl-butyl)-amino]-4′-trifluoromethyl-biphenyl-3-yl}-4-methyl-pentanoic Acid]", "values": [
      {"measurement": "EC50", "value": 150, "unit": "nM"}
    ]},
    {"molecule": "CC(C)CC(C(=O)O)c1cc(Oc2cccc(C(C)C)c2)cc(-c2ccc(C(F)(F)F)cc2)c1", "note": "(stereo not shown) [Example 16, 2-[5-(3-Isopropyl-phenoxy)-4′-trifluoromethyl-biphenyl-3-yl]-4-methyl-pentanoic Acid]", "values": [
      {"measurement": "inhibition @ 3 uM (WTAPP)", "setting": "3 uM", "value": 64, "unit": "% inhibition @ 3 uM"}
    ]},
    {"molecule": "CC(C)CC(C(=O)O)c1cc(Oc2cc(F)cc(C(F)(F)F)c2)cc(-c2ccc(Cl)c(C(F)(F)F)c2)c1", "note": "(stereo not shown) [Example 17, 4-Methyl-2-[4′-chloro-3′-trifluoromethyl-5-(3-fluoro-5-trifluoromethylphenoxy)-biphenyl-3-yl]-pentanoic Acid]", "values": [
      {"measurement": "EC50", "value": 140, "unit": "nM"}
    ]},
    {"molecule": "CC(C)CC(C(=O)O)c1cc(Oc2cc(F)cc(C(F)(F)F)c2)cc(-c2ccc(C(F)(F)F)cc2)c1", "note": "(stereo not shown) [Example 18, 2-[5-(3-Fluoro-5-trifluoromethyl-phenoxy)-4′-trifluoromethyl-biphenyl-3-yl]-4-methyl-pentanoic Acid]", "values": [
      {"measurement": "EC50", "value": 330, "unit": "nM"}
    ]},
    {"molecule": "CC(C)CC(C(=O)O)c1cc(-c2ccc(C(F)(F)F)cc2)cc(-c2cc(F)nc(F)c2)c1", "note": "(stereo not shown) [Example 19, 2-[5-(2,6-Difluoro-pyridin-4-yl)-4′-trifluoromethyl-biphenyl-3-yl]-4-methyl-pentanoic Acid]", "values": [
      {"measurement": "EC50", "value": 220, "unit": "nM"}
    ]},
    {"molecule": "CC(C)CC(C(=O)O)c1cc(-c2ccc(C(F)(F)F)cc2)cc(-c2ccc(C(F)(F)F)cn2)c1", "note": "(stereo not shown) [Example 20, 4-Methyl-2-[4′-trifluoromethyl-5-(5-trifluoromethyl-pyridin-2-yl)-biphenyl-3-yl]-pentanoic Acid]", "values": [
      {"measurement": "EC50", "value": 320, "unit": "nM"}
    ]},
    {"molecule": "CC(C)CCC(Oc1cc(-c2ccc(C(F)(F)F)cc2)cc(C(CC(C)C)C(=O)O)c1)c1cc(F)cc(F)c1", "note": "(stereo not shown) [Example 21, 2-{5-[1-(3,5-Difluoro-phenyl)-4-methyl-pentyloxy]-4′-trifluoromethyl-biphenyl-3-yl}-4-methyl-pentanoic Acid]", "values": [
      {"measurement": "EC50", "value": 230, "unit": "nM"}
    ]},
    {"molecule": "CC(C)CC(C(=O)O)c1cc(C(=O)c2cc(Cl)cc(Cl)c2)cc(-c2ccc(C(F)(F)F)cc2)c1", "note": "(stereo not shown) [Example 22, 2-[5-(3,5-Dichloro-benzoyl)-4′-trifluoromethyl-biphenyl-3-yl]-4-methyl-pentanoic Acid]", "values": [
      {"measurement": "EC50", "value": 710, "unit": "nM"}
    ]},
    {"molecule": "CC(C)CC(C(=O)O)c1cc(/C=C/c2ccc(-c3ccccc3)cc2)cc(-c2ccc(C(F)(F)F)cc2)c1", "note": "(stereo not shown) [Example 23, 2-[5-(2-Biphenyl-4-yl-vinyl)-4′-trifluoromethyl-biphenyl-3-yl]-4-methyl-pentanoic Acid]", "values": [
      {"measurement": "EC50", "value": 140, "unit": "nM"}
    ]},
    {"molecule": "CC(C)CC(C(=O)O)c1cc(CCc2ccc(-c3ccccc3)cc2)cc(-c2ccc(C(F)(F)F)cc2)c1", "note": "(stereo not shown) [Example 24, 2-[5-(2-Biphenyl-4-yl-ethyl)-4′-trifluoromethyl-biphenyl-3-yl]-4-methyl-pentanoic Acid]", "values": [
      {"measurement": "EC50", "value": 210, "unit": "nM"}
    ]},
    {"molecule": "CC(C)CC(C(=O)O)c1cc(NC(=O)c2cccc(C(F)(F)F)c2)cc(-c2ccc(C(F)(F)F)cc2)c1", "note": "(stereo not shown) [Example 25, 4-Methyl-2-[4′-trifluoromethyl-5-(3-trifluoromethyl-benzoylamino)-biphenyl-3-yl]-pentanoic Acid]", "values": [
      {"measurement": "EC50", "value": 1790, "unit": "nM"}
    ]},
    {"molecule": "CC(C)CC(C(=O)O)c1cc(-c2ccc(C(F)(F)F)cc2)cc(C2CCCC(C(F)(F)F)N2)c1", "note": "(stereo not shown) [Example 27, 4-Methyl-2-[4′-trifluoromethyl-5-(6-trifluoromethyl-piperidin-2-yl)-biphenyl-3-yl]-pentanoic Acid]", "values": [
      {"measurement": "EC50", "value": 700, "unit": "nM"}
    ]},
    {"molecule": "CC(C)CCN1C(c2cc(-c3ccc(C(F)(F)F)cc3)cc(C(CC(C)C)C(=O)O)c2)CCCC1C(F)(F)F", "note": "(stereo not shown) [Example 28, 4-Methyl-2-{5-[1-(3-methyl-butyl)-6-trifluoromethyl-piperidin-2-yl]-4′-trifluoromethyl-biphenyl-3-yl}-pentanoic Acid]", "values": [
      {"measurement": "EC50", "value": 110, "unit": "nM"}
    ]},
    {"molecule": "CC(C)CCN(Cc1cc(-c2ccc(C(F)(F)F)cc2)cc(C(CC(C)C)C(=O)O)c1)Cc1cc(F)c(F)c(F)c1", "note": "(stereo not shown) [Example 29, 4-Methyl-2-(5-{[(3-methyl-butyl)-(3,4,5-trifluoro-benzyl)-amino]-methyl}-4′-trifluoromethyl-biphenyl-3-yl)-pentanoic Acid]", "values": [
      {"measurement": "EC50", "value": 270, "unit": "nM"}
    ]},
    {"molecule": "CC(C)CCN(Cc1cc(-c2ccc(C(F)(F)F)cc2)cc(C(CC(C)C)C(=O)O)c1)Cc1cc(C(F)(F)F)cc(C(F)(F)F)c1", "note": "(stereo not shown) [Example 30, 2-(5-{[(3,5-Bis-trifluoromethyl-benzyl)-(3-methyl-butyl)-amino]-methyl}-4′-trifluoromethyl-biphenyl-3-yl)-4-methyl-pentanoic Acid]", "values": [
      {"measurement": "EC50", "value": 250, "unit": "nM"}
    ]},
    {"molecule": "CC(C)CC(C(=O)O)c1cc(-c2ccc(C(F)(F)F)cc2)cc(C2CCN(Cc3ccc(C(F)(F)F)cc3)CC2)c1", "note": "(stereo not shown) [Example 31, 4-Methyl-2-{4′-trifluoromethyl-5-[1-(4-trifluoromethyl-benzyl)-piperidin-4-yl]-biphenyl-3-yl}-pentanoic Acid]", "values": [
      {"measurement": "% @ 0.3 uM (WTAPP)", "value": 8, "unit": "% @ 0.3 uM"}
    ]},
    {"molecule": "CC(C)CCC(c1ccc(C(F)(F)F)cc1)N1CCC(c2cc(-c3ccc(C(F)(F)F)cc3)cc(C(CC(C)C)C(=O)O)c2)CC1", "note": "(stereo not shown) [Example 32, 4-Methyl-2-(5-{1-[4-methyl-1-(4-trifluoromethyl-phenyl)-pentyl]-piperidin-4-yl}-4′-trifluoromethyl-biphenyl-3-yl)-pentanoic Acid]", "values": [
      {"measurement": "EC50", "value": 2080, "unit": "nM"}
    ]},
    {"molecule": "CC(C)CC(C(=O)O)c1cc(NC2CCC(C(C)(C)C)CC2)cc(-c2ccc(C(F)(F)F)cc2)c1", "note": "(stereo not shown) [Example 33, 2-[5-(4-tert-Butyl-cyclohexylamino)-4′-trifluoromethyl-biphenyl-3-yl]-4-methyl-pentanoic Acid]", "values": [
      {"measurement": "EC50", "value": 64, "unit": "nM"}
    ]},
    {"molecule": "CC(C)CCC(Nc1cc(-c2ccc(C(F)(F)F)cc2)cc(C(CC(C)C)C(=O)O)c1)c1cc(F)cc(F)c1", "note": "(stereo not shown) [Example 34, 2-{5-[1-(3,5-Difluoro-phenyl)-4-methyl-pentylamino]-4′-trifluoromethyl-biphenyl-3-yl}-4-methyl-pentanoic Acid]", "values": [
      {"measurement": "EC50", "value": 330, "unit": "nM"}
    ]},
    {"molecule": "CC(C)CC(C(=O)O)c1cc(-c2ccc(C(F)(F)F)cc2)cc(C2CCCN(Cc3ccc(C(F)(F)F)cc3)C2)c1", "note": "(stereo not shown) [Example 36, 4-Methyl-2-{4′-trifluoromethyl-5-[1-(4-trifluoromethyl-benzyl)-piperidin-3-yl]-biphenyl-3-yl}-pentanoic Acid]", "values": [
      {"measurement": "EC50", "value": 510, "unit": "nM"}
    ]},
    {"molecule": "CC(C)CCC(Nc1cc(-c2ccc(C(F)(F)F)cc2)cc(C(CC(C)C)C(=O)O)c1)c1cc(C(F)(F)F)cc(C(F)(F)F)c1", "note": "(stereo not shown) [Example 39, 2-{5-[1-(3,5-Bis-trifluoromethyl-phenyl)-4-methyl-pentylamino]-4′-trifluoromethyl-biphenyl-3-yl}-4-methyl-pentanoic Acid]", "values": [
      {"measurement": "EC50", "value": 220, "unit": "nM"}
    ]},
    {"molecule": "CC(C)CCN(Cc1cc(F)cc(F)c1)c1cc(-c2ccc(C(F)(F)F)cc2)cc([C@@H](CC(C)C)C(=O)O)c1", "note": "[Example 40, 2-{5-[(3,5-Difluoro-benzyl)-(3-methyl-butyl)-amino]-4′-trifluoromethyl-biphenyl-3-yl}-4-methyl-pentanoic Acid]", "values": [
      {"measurement": "EC50", "value": 190, "unit": "nM"}
    ]},
    {"molecule": "(S*)4-Methyl-2-(5-{1-[4-methyl-1-(4-trifluoromethyl-phenyl)-pentyl]-piperidin-3-yl}-4′-trifluoromethyl-biphenyl-3-yl)-pentanoic Acid [Example 38]", "values": [
      {"measurement": "EC50", "value": 450, "unit": "nM"}
    ]}
  ]
}
